Assay results reported in PMC9230671, “Fluorochrome Selection for Imaging Intraoperative Ovarian Cancer Probes” (Pharmaceuticals, 2022).
Counter-ions that a name gives are not always drawn. Marks after values point to notes of the source that are not given here.

Legend:
[1] = biological target: T1, COX-1 (Ovis aries, UniProt P05979); experiment: COX-1 inhibition, COX (ovine/human) inhibitor screening assay kit; assay type: biochemical; details: for inhibition at 50 µM: at 50 µM compound final concentration, read-out: COX-1 % inhib.
T1 construct: purchased Cayman Chemicals (bought through Sigma-Aldrich) 560131
T1 sequence (P05979 25-600): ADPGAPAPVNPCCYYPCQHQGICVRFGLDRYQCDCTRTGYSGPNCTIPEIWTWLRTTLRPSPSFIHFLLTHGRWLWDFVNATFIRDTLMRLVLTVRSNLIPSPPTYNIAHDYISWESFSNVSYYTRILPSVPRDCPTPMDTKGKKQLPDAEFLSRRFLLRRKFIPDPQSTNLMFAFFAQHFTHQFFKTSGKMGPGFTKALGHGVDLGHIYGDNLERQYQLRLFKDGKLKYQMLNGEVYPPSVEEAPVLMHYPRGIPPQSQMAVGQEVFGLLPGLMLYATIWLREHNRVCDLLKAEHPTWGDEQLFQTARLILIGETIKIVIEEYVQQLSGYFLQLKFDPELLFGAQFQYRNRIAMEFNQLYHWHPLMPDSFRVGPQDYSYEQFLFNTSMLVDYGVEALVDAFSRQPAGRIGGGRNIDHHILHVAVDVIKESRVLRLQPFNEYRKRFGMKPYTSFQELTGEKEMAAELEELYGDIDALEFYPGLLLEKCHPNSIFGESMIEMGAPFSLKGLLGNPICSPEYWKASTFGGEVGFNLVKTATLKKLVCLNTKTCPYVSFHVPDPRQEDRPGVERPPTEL
Description: (§1) Cell culture reagents were purchased from Euroclone (Milan, Italy). COX (ovine/human) inhibitor screening assay kit (Catalog No. 560131, Cayman Chemicals, Ann Arbor, MI, USA) was purchased from Sigma-Aldrich, Burlington, MA, USA. […] The other reagents were purchased from Sigma-Aldrich, Burlington, MA, USA.
(§2) The COX-1/2 inhibition screening experiments were carried out according to the manufacturer’s instructions. The plate was incubated for 60 min at r.t. under shaking and read with the Tecan Infinite 200 Microplate Reader at λ = 405 nm.
(§3) The graph between percent inhibition of the enzyme and corresponding concentration of the compound provided IC50 values for the probe compounds.

[2] = biological target: T2, COX-2 (Homo sapiens, UniProt P35354); experiment: COX-2 inhibition, COX (ovine/human) inhibitor screening assay kit; assay type: biochemical; details: for COX-2 inhibitory activity (in words): up to 50 µM final concentration
T2 construct: purchased Cayman Chemicals (bought through Sigma-Aldrich) 560131
T2 sequence (P35354 18-604): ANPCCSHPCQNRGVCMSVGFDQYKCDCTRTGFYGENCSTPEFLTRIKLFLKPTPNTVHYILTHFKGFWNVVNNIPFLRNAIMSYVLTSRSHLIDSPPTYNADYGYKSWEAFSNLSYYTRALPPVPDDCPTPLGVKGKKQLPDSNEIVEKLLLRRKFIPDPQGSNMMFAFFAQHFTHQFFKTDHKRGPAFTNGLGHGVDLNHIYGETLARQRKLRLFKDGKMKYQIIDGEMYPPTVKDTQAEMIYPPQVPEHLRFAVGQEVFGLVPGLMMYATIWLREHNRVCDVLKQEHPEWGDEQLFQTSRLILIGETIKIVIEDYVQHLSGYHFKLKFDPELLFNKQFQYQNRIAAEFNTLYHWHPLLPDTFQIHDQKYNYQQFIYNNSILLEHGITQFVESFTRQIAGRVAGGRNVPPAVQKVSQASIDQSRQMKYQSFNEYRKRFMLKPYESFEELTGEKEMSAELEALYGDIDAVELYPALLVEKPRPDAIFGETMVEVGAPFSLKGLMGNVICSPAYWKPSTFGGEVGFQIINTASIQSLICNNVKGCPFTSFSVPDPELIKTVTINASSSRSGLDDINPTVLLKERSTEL
Description: as §1, §2, §3

[3] = Fluorescence property measurements (absorption/emission spectra); assay type: physicochemical; parameters: Stokes Shift: unit not given here
Description: The λabs and λem, of the target compounds were measured in aqueous solution (phosphate-buffered saline solution, PBS) at the concentration of 10^−5 M (Table 1).
Fluorescence spectra of all target compounds were determined in PBS and EtOH solutions (Table 1) with a Tecan Infinite 200 Microplate Reader. In all experiments, the excitation and the emission bandpass were set at λ = 5 nm. The emission spectra were obtained from λ = 280 to 850 nm, with excitation set at the appropriate excitation wavelength. Absorption spectra were recorded with a Shimadzu UV-1800 spectrophotometer.

[4] = Solubility in PBS (remark); assay type: physicochemical
Excerpt: Despite of the solvent, the Stokes shift was very low with this fluorophore.

COc1ccc(-c2noc(CC(=O)NCCCCCCCCCCCCNS(=O)(=O)c3cccc4c(N(C)C)cccc34)c2-c2ccc(OC)cc2)cc1 [Compound 6b, 2-[3,4-Bis(4-methoxyphenyl)-5-yl]-N-{4-[(5-dimethylaminonaphthalene)-1-sulfonamido]dodecyl}acetamide]
IC50 [1]: 0.1 µM
SI (selectivity index) [1]: > 500
inhibition at 50 µM [1]: 71%
IC50 [2]: > 50 µM
Stokes Shift ([3]; PBS solution, 10^−5 M): 222
λabs ([3]; PBS solution, 10^−5 M): 270 nm
λem ([3]; PBS solution, 10^−5 M): 492 nm
melting point: 126 to 129 °C

COc1ccc(-c2noc(CC(=O)NCCCCNS(=O)(=O)c3cccc4c(N(C)C)cccc34)c2-c2ccc(OC)cc2)cc1 [Compound 3a, 2-[3,4-Bis(4-methoxyphenyl)isoxazol-5-yl]-N-{4-[(5-dimethylaminonaphthalene)-1-sulfonamido]butyl}acetamide]
COX-1 inhibitory activity (in words) [1]: almost inactive
IC50 [1]: > 50 µM
inhibition at 50 µM [1]: 45%
IC50 [2]: > 50 µM
COX-2 inhibitory activity (in words) [2]: almost inactive
Stokes Shift ([3]; PBS solution, 10^−5 M): 264
λabs ([3]; PBS solution, 10^−5 M): 230 nm
λem ([3]; PBS solution, 10^−5 M): 494 nm
melting point: 69 to 71 °C

CCN1/C(=C/C=C/C=C/C=C/C2=[N+](CCCCCC(=O)NCCCCNC(=O)Cc3onc(-c4ccc(OC)cc4)c3-c3ccc(OC)cc3)c3ccc4ccccc4c3C2(C)C)C(C)(C)c2c1ccc1ccccc21 (as salt: chloride) [23 (MSA14), 3-(6-(4-(2-(3,4-Bis(4-methoxyphenyl)isoxazole-5-yl)acetamido)butyl)amino-6-oxohexyl)-2-[7-(1,3-dihydro-1,1-dimethyl-3-ethyl-2H-benz[e]indolin-2-yl-idene)-1,3,5-heptatrienyl]-1,1-dimethyl-3-(6-carboxilato-hexyl)-1H-benz[e]indolium chloride]
melting point: 220 °C (dec.)

CCCN1C(=O)c2cccc3c(Nc4ccc(NC(=O)Cc5onc(-c6ccc(OC)cc6)c5-c5ccc(OC)cc5)cc4)ccc(c23)C1=O [Compound 17b, 2-(3,4-Bis(4-methoxyphenyl)isoxazol-5-yl)-N-(4-((1,3-dioxo-2-propyl-2,3-dihydro-1H-benzo[de]isoquinolin-6-yl)amino)phenyl)acetamide]
IC50 [1]: 0.15 µM
SI (selectivity index) [1]: > 333
inhibition at 50 µM [1]: 49%
IC50 [2]: > 50 µM
COX-2 inhibitory activity (in words) [2]: almost inactive
Stokes Shift ([3]; ethanol (10^−5 M)): 92
λabs ([3]; ethanol (10^−5 M)): 450 ^b nm
λem ([3]; ethanol (10^−5 M)): 542 ^b nm
solubility in PBS [4]: low solubility
melting point: 112 to 115 °C

COc1ccc(-c2noc(CC(=O)Nc3ccc(NS(=O)(=O)c4cccc5c(N(C)C)cccc45)cc3)c2-c2ccc(OC)cc2)cc1 [Compound 3b, 2-[3,4-Bis(4-methoxyphenyl)isoxazol-5-yl]-N-{4-[(5-dimethylaminonaphthalene)-1-sulfonamido]phenyl}acetamide]
IC50 [1]: 0.05 µM
SI (selectivity index) [1]: > 1000
inhibition at 50 µM [1]: 44%
IC50 [2]: > 50 µM
Stokes Shift ([3]; PBS solution, 10^−5 M): 154
λabs ([3]; PBS solution, 10^−5 M): 360 nm
λem ([3]; PBS solution, 10^−5 M): 514 nm
melting point: 120 to 122 °C

COc1ccc(-c2noc(CC(=O)NCCCCCCCCCCCCNc3ccc([N+](=O)[O-])c4nonc34)c2-c2ccc(OC)cc2)cc1 [Compound 13c, 2-(3,4-Bis(4-methoxyphenyl)isoxazol-5-yl)-N-(12-((7-nitrobenzo[c][1,2,5]oxadiazol-4-yl)amino)dodecyl)acetamide]
IC50 [1]: > 50 µM
inhibition at 50 µM [1]: 28%
IC50 [2]: > 50 µM
Stokes Shift ([3]; PBS solution, 10^−5 M): 55
λabs ([3]; PBS solution, 10^−5 M): 495 nm
λem ([3]; PBS solution, 10^−5 M): 550 nm

CCCN1C(=O)c2cccc3c(NCCCCCCNC(=O)Cc4onc(-c5ccc(OC)cc5)c4-c4ccc(OC)cc4)ccc(c23)C1=O [Compound 17a, 2-(3,4-Bis(4-methoxyphenyl)isoxazol-5-yl)-N-(6-((1,3-dioxo-2-propyl-2,3-dihydro-1H-benzo[de]isoquinolin-6-yl)amino)hexyl)acetamide]
IC50 [1]: 0.08 µM
SI (selectivity index) [1]: > 625
inhibition at 50 µM [1]: 51%
IC50 [2]: > 50 µM
COX-2 inhibitory activity (in words) [2]: almost inactive
Stokes Shift ([3]; PBS solution, 10^−5 M): 96
λabs ([3]; PBS solution, 10^−5 M): 450 nm
λem ([3]; PBS solution, 10^−5 M): 546 nm
melting point: 110 to 111 °C

COc1ccc(-c2noc(CC(=O)Nc3ccc(-c4ccc(NS(=O)(=O)c5cccc6c(N(C)C)cccc56)cc4)cc3)c2-c2ccc(OC)cc2)cc1 [Compound 3c, 2-[3,4-Bis(4-methoxyphenyl)isoxazol-5-yl]-N-{4-[(5-dimethylaminonaphthalene)-1-sulfonamido]biphenyl}acetamide]
IC50 [1]: 0.06 µM
SI (selectivity index) [1]: > 833
inhibition at 50 µM [1]: 71%
IC50 [2]: > 50 µM
Stokes Shift ([3]; PBS solution, 10^−5 M): 217
λabs ([3]; PBS solution, 10^−5 M): 287 nm
λem ([3]; PBS solution, 10^−5 M): 504 nm
melting point: 240 to 241 °C

COc1ccc(-c2noc(CC(=O)NCCCCCCNS(=O)(=O)c3cccc4c(N(C)C)cccc34)c2-c2ccc(OC)cc2)cc1 [Compound 6a]
IC50 [1]: 12 µM
SI (selectivity index) [1]: > 4
inhibition at 50 µM [1]: 74%
IC50 [2]: > 50 µM
Stokes Shift ([3]; ethanol (10^−5 M)): 273
λabs ([3]; ethanol (10^−5 M)): 248 ^b nm
λem ([3]; ethanol (10^−5 M)): 521 ^b nm
melting point: 66 to 69 °C

COc1ccc(-c2noc(CC(=O)NCCCCNc3ccc([N+](=O)[O-])c4nonc34)c2-c2ccc(OC)cc2)cc1 [Compound 13a, 2-(3,4-Bis(4-methoxyphenyl)isoxazol-5-yl)-N-(4-((7-nitrobenzo[c][1,2,5]oxadiazol-4-yl)amino)butyl)acetamide]
IC50 [1]: > 50 µM
inhibition at 50 µM [1]: 0%
IC50 [2]: > 50 µM
Stokes Shift ([3]; PBS solution, 10^−5 M): 82
λabs ([3]; PBS solution, 10^−5 M): 482 nm
λem ([3]; PBS solution, 10^−5 M): 564 nm
melting point: 165 °C (dec.)

COc1ccc(-c2noc(CC(=O)NCCCCCCNc3ccc([N+](=O)[O-])c4nonc34)c2-c2ccc(OC)cc2)cc1 [Compound 13b, 2-(3,4-Bis(4-methoxyphenyl)isoxazol-5-yl)-N-(6-((7-nitrobenzo[c][1,2,5]oxadiazol-4-yl)amino)hexyl)acetamide]
IC50 [1]: > 50 µM
inhibition at 50 µM [1]: 26%
IC50 [2]: > 50 µM
Stokes Shift ([3]; PBS solution, 10^−5 M): 64
λabs ([3]; PBS solution, 10^−5 M): 490 nm
λem ([3]; PBS solution, 10^−5 M): 554 nm

COc1ccc(-c2noc(CC(=O)Nc3ccc(NC(=O)CCCCCCCCCCNS(=O)(=O)c4cccc5c(N(C)C)cccc45)cc3)c2-c2ccc(OC)cc2)cc1 [Compound 9]
IC50 [1]: 0.7 µM
SI (selectivity index) [1]: > 71
inhibition at 50 µM [1]: 83%
IC50 [2]: > 50 µM
Stokes Shift ([3]; PBS solution, 10^−5 M): 222
λabs ([3]; PBS solution, 10^−5 M): 274 nm
λem ([3]; PBS solution, 10^−5 M): 496 nm
melting point: 140 to 143 °C
